Test results published in US8153599B1, “Compounds with the biological activity of vasoactive intestinal peptide for the treatment of pulmonary and arteriolar hypertension” (Mondobiotech AG, priority 2000, dated 2012).
Where two headings read alike, the source gives them in different places. No end group written: not given here.

How the values were obtained:
[1] = tested on: isolated VSMC prepared from pulmonary arteries; assay: Binding of 99 mTc-VIP to isolated VSMC prepared from pulmonary arteries; set-up: species or system human; settings: for Kd: read-out: binding affinity Kd
Excerpt: FIG. 4: Binding of 99 mTc-VIP to isolated VSMC prepared from pulmonary arteries of PPH patients (4b) and control patients (4a).
(§1) While VIP-R mRNA accumulation is easily detectable PPH, only low levels of VIP-R mRNA accumulation can be detected in healthy controls (FIG. 3). Analogously an increased receptor binding activity for VIP is seen in primary cultures of pulmonary artery vascular smooth muscle cells (PaVSMC) prepared from pulmonary resistance vessels of PPH patients compared to healthy subjects (FIGS. 4a and 4b). […] Pharmacologically, nitric oxide induces vasodilatation by lowering the intracellular free calcium concentration of PaVSMC.

[2] = Acute testing of inhaled peptide in PPH patient, right heart catheterisation (pulmonary hemodynamics and gas exchange); assay type: in vivo, human; settings: for mean pulmonary artery pressure (mPAP) after inhalation: 100 μg inhaled for 15 minutes, measured 15 minutes after, baseline 63 (VIP) / 65 (PACAP) mmHg; for PVR after inhalation / SvO2 after inhalation / PaO2 after inhalation: 100 μg inhaled; for PVR after inhalation: baseline 12 (VIP) / 13 (PACAP) woods; for SvO2 after inhalation: baseline 61% (VIP) / 59% (PACAP); for PaO2 after inhalation: baseline 91%
Procedure: A patient with severe PPH was under therapy with diltiazem, furosemid and an anticoagulant. Right heart catheterisation (Swan-Ganz, Baxter, Irvine, Calif., USA) was performed to measure mean pulmonary artery pressure (mpap), cardiac output (CO), mean arterial pressure (MAP), pulmonary capillary wedge pressure (PCWP) mixed venous oxygen saturation (SvO2%) and systemic arterial oxygen pressure (PaO2%). VIP (100 μg in 3 ml NaCl 0.9%) was inhaled for 15 minutes via the MicroDrop Master Jet (MPV, Truma, Germany) using a particle size of 3 μm to provide alveolar deposition of the substance. Alternatively VIP was injected i.v. 20 (ng/kg.b.w./min) via portable pump system (CADD-1, Pharmacia-Upjohn, Vienna, Austria). Pulmonary homodynamic and gas exchange were measured before and 15 minutes after inhalation or i.v. injection of VIP. Right heart catheterisation was performed in the intensive care unit. The patient was monitored on-line electrocardiographically, invasive blood pressure and systemic arterial oxygen saturation (SaO2%) (Hewlett Packard, Böblingen, Germany) were measured. All hemodynamic and oxygen measurements were performed with a cardiac output computer (Explorer, Baxter) and a pressure monitoring kit (Baxter, Irvine, Calif., USA). Calculations were made according to the standard equations in a […] by taking blood from the radial and pulmonary artery (Automatic blood gas system, AVL-995-Hb, Austria). At baseline (before inhalation of VIP), mPAP was 63 mmHg, CI 3.6 l·min^−1, PVR 12 woods, PCWP 9 mmHg, PaO2 91% and SvO2 61%. Addition of 100 μg inhaled VIP improved pulmonary hemodynamic parameters; mPAP decreased to 49 mmHg and PVR to 9 woods. PaO2 to 93% and SvO2 to 63% compared to baseline.
A patient with severe PPH was under therapy with diltiazem, furosemid and an anticoagulant. Right heart catheterisation (Swan-Ganz, Baxter, Irvine, Calif., USA) was performed to measure mean pulmonary artery pressure (mpap), cardiac output (CO), mean arterial pressure (mAP), pulmonary capillary wedge pressure (PCWP) mixed venous oxygen saturation (SvO2%) and systemic arterial oxygen pressure (PaO2%). PACAP (100 μg in 3 ml NaCl 0.9%) was inhaled for 15 minutes via the MicroDrop Master Jet (MPV, Truma, Germany) using a particle size of 3 μm to provide alveolar deposition of the substance. Pulmonary hemodynamics and gas exchange were measured before and 15 minutes after inhalation of PACAP. Right heart catheterisation was performed in the intensive care unit. The patient was monitored on-line electrocardiographically, invasive blood pressure and systemic arterial oxygen saturation (SaO2%) (Hewlett Packard, Böblingen, Germany) were measured. All hemodynamic and oxygen measurements were performed with a cardiac output computer (Explorer, Baxter) and a pressure monitoring kit (Baxter, Irvine, Calif., USA). Calculations were made according to the standard equations in a patient data management system (CareVue 9000, Hewlett Packard, Böblingen, Germany). Blood gas analysis was performed by taking blood from the radial and pulmonary artery (Automatic blood gas system, AVL-995-Hb, Austria). At baseline (before inhalation of PACAP), mPAP was 65 mmHg, CI 3.2 l·min^−1, PVR 13 woods, PCWP 10 mmHg, PaO2 91% and SvO2 59%. Addition of 100 μg inhaled PACAP improved pulmonary hemodynamic parameters; mpap decreased to 45 mmHg and PVR to 8 woods. PaO2 increased to 93% and SvO2 to 62% compared to baseline.

[3] = Inhaled VIP in COPD patient with secondary pulmonary hypertension (SPH); assay type: in vivo, human
Procedure: A patient suffering from Chronic Obstructive Pulmonary Disease (COPD) with secondary pulmonary hypertension (SPH) (mPAP 32 mmHg) was tested for their response to inhaled VIP (200 μg in 3 ml NaCl 0.9%) The inhalation of VIP led to a decrease of mPAP from 32 mmHg to 25 mmHg. This effect was paralleled by increase of cardiac output from 4.1 l·min^−1 to 4.8 l·min^−1.

[4] = i.v. VIP in patient with severe essential arteriolar hypertension, intraarterial blood pressure monitoring; assay type: in vivo, human; settings: 20 ng/kg/min i.v.
Procedure: FIG. 7: The effect of VIP on systolic and diastolic blood pressure in a patient with essential hypertension after intravenous injection. The patient received VIP at 20 ng/kg/b.w./min. Blood pressure was measured intraarterially. Y-axis: pressure (mmHg), x-axis: time (min).
A patient with severe essential arteriolar hypertension is under treatment with nifedipine and enalapril. Systolic and diastolic systemic arterial pressure (SAP) were measured by intraarterial monitoring. VIP (20 ng/kg/min) was injected i.v. via a portable pump system (CADD-1, Pharmacia-Upjohn, Vienna, Austria). […] Before injection of VIP, the systolic pressure (SAP) was 165 mmHg and the diastolic (DAP) was 110 mmHg.

[5] = tested on: human pulmonary arterial rings; assay: Vasodilatory effect on human pulmonary arterial rings (vascular tone in vitro); assay type: cell-based; settings: after increase of tone by 80 mmol K+, increasing concentrations (FIG. 6)
Excerpt: FIG. 6: Vasodilatory effect of VIP on human pulmonary arterial rings. Arteries of patients subjected to thorax surgery were surgically removed and tested in vitro under standardized procedures for their vascular tone.

[6] = tested on: Nitric oxide synthetase (ecnos); assay: Nitric oxide synthetase (ecnos) expression in endothelial cells from pulmonary arteries, Western blot; assay type: cell-based, human; settings: 10^−7 M, normoxic and hypoxic conditions, 96 hours (FIG. 8)
Procedure: FIG. 8: Nitric oxide synthetase (ecnos) expression in endothelial cells prepared from pulmonary arteries of control subjects after 96 hours of incubation. Cells were incubated with VIP (10^−7 M) under normoxic (−) and hypoxic (+) conditions for various times. Western blots reveal constitutive expression under normoxic conditions without VIP.
as §1

[7] = tested on: VSMC prepared from pulmonary arteries; assay: Interleukin1-b induced elevation of intracellular free calcium in VSMC from pulmonary arteries, fura-2 method; assay type: cell-based, human; settings: VIP 250 ng/ml and 500 ng/ml (FIG. 9)
Procedure: FIG. 9: The effect of VIP on the interleukin1-b induced elevation of intracellular free calcium concentration in VSMC prepared from pulmonary arteries. Ordinate-Ca2+ (nmol). 1-basal concentration; 2-interleukin1-b; 3-interleukin1-b plus VIP 250 ng/ml and 4-VIP 500 ng/ml intracellular calcium concentration during incubation with VIP; Ca 2+ was determined by fura-2 method.
as §1

[8] = tested on: VSMC from pulmonary arterial vessel; assay: Proliferation of VSMC from pulmonary arterial vessel; assay type: cell-based, human; settings: 10^−12 M to 10^−9 M (FIG. 10)
Excerpt: FIG. 10: The effect of VIP on the proliferation of VSMC from pulmonary arterial vessel. Ordinate-proliferation as percent of control. 1-without VIP; 2-10^−12M VIP; 3-10^−11M VIP; 4-10^−10M VIP; 5-10^−9M VIP.
as §1

[9] = Acute testing of inhaled peptide in PPH patient, right heart catheterisation (pulmonary hemodynamics and gas exchange); assay type: in vivo, human; settings: for time dependence of mPAP decrease: 100 μg inhaled (FIG. 5b)
[10] = biological target: VIP receptor (VIP-R) on vascular smooth muscle cells prepared from human pulmonary arteries (human); assay: radioligand binding of 99mTc-VIP to isolated VSMC from pulmonary arteries of PPH patients (FIG. 4b)
[11] = biological target: VIP receptor (VIP-R) on vascular smooth muscle cells prepared from human pulmonary arteries (human); assay: radioligand binding of 99mTc-VIP to isolated VSMC from pulmonary arteries of control patients (FIG. 4a)
[12] = VSMC of control patients (FIG. 4a)

For 99 mTc-VIP: radiolabeled VIP, the “specific binding Bmax” value ([1]; VSMC of PPH patients (FIG. 4b)) was 0.9 pm per mg protein, the Kd ([1]; VSMC of PPH patients (FIG. 4b)) was 1.6 pM and the “specific binding Bmax” value [1, 12] was 0.6 pm per mg protein. The Kd [1, 12] was 42 pM.

In the case of “His-Ser-Asp-Ala-Val-Phe-Thr-Asp-Asn-Tyr-Thr-Arg-Leu-Arg-Lys-Gln-Met-Ala-Val-Lys-Lys-Tyr-Leu-Asn-Ser-Ile-Leu-Asn (HSDAVFTDNYTRLRKQMAVKKYLNSILN; listed as Homo sapiens) [VIP, 28 amino acid peptide hormone]”, the “mean pulmonary artery pressure (mPAP) after inhalation” value [2] is reported as 49 mmHg, the PVR after inhalation [2] is reported as 9 woods and the SvO2 after inhalation [2] is reported as 63%. The PaO2 after inhalation [2] was 93%, the mPAP after inhalation ([3]; 200 μg in 3 ml NaCl 0.9% inhaled, from 32 mmHg) was 25 mmHg and the “cardiac output after inhalation” value ([3]; 200 μg inhaled, from 4.1 l·min^−1) was 4.8 L/min. The “diastolic pressure (DAP) after application” value ([4]; before 110 mmHg) was 90 mmHg, the “systolic pressure (SAP) after application” value ([4]; before 165 mmHg) was 145 mmHg and the vessel tone [5] was “continuous decrease of the vessel tone”. For the same molecule, the ecnos expression [6] was “increased expression of ecnos above constitutional level”, the “intracellular free calcium concentration” value [7] was “decrease of the intracellular free calcium concentration” and the “proliferation of PaVSMC” value [8] was “inhibits the proliferation”. The “time dependence of mPAP decrease” value ([9]; PPH patient) was “Time dependant decrease”, the “dose dependence of mPAP decrease” value ([9]; PPH patient, increased inhaled doses (FIG. 5a)) was “dose-dependently decrease” and the dose of maximum efficacy on mPAP ([9]; PPH patient, inhaled) was 100 µg.

In the case of “His-Ser-Asp-Gly-Ile-Phe-Thr-Asp-Ser-Tyr-Ser-Arg-Tyr-Arg-Lys-Gln-Met-Ala-Val-Lys-Lys-Tyr-Leu-Ala-Ala-Val-Leu-Gly-Lys-Arg-Tyr-Lys-Gln-Arg-Val-Lys-Asn-Lys (HSDGIFTDSRYSRYRKQMAVKKYLAAVLGKRYKQRVNK; listed as Homo sapiens) [PACAP, neuropeptide of 38 amino acid residues]”, the “mean pulmonary artery pressure (mPAP) after inhalation” value [2] is reported as 45 mmHg, the PVR after inhalation [2] is reported as 8 woods and the SvO2 after inhalation [2] is reported as 62%. For the same molecule, the PaO2 after inhalation [2] was 93%, the “time dependence of mPAP decrease” value ([9]; PPH patient) was “time-dependently decrease” and the CI ([9]; Table 1, after, mean, before mean 2.7) was 3.2. It also gave a PCWP ([9]; Table 1, after, mean, before mean 8.6) of 8.5, a mPAP ([9]; Table 1, after, mean, before mean 57.1) of 44.4 and a SvO2 ([9]; Table 1, after, mean, before mean 60.0) of 62.5. For the same molecule, the PaO2 ([9]; Table 1, after, mean, before mean 66.8) was 69.3, the mAP ([9]; Table 1, after, mean, before mean 84.5) was 81.0 and the PVR ([9]; Table 1, after, mean, before mean 906.4) was 544.1.

B1: 99mTc-labelled vasoactive intestinal peptide (VIP) (peptide)
peptide: HSDAVFTDNYTRLRKQMAVKKYLNSILN
modifications: ends and bridges not checked; also: 99mTc radiolabel, site and chelator not given here
B1 showed a Bmax (pm per mg protein) [10] of 0.9, a Kd [10] of 1.6 pM and a Bmax (pm per mg protein) [11] of 0.6.
